Laboratory results published in patent US20240083879A1, “OXALAMIDE COMPOUNDS AND COMPOSITIONS FOR TREATING CONDITIONS ASSOCIATED WITH STING ACTIVITY” (IFM Due, Inc., priority 2021, published 2024).

What follows are compounds tested against hSTING (Homo sapiens (Human), UniProt Q86WV6, G230A/R293Q/R71H) (assay: STING reporter assay (luciferase) in THP1-Dual KO-IFNAR2 cells stimulated with 2'3'cGAMP). Details: 15 μM 2'3'cGAMP, 24 h.
Format: cell-based
Experimental: STING pathway activation by the compounds described herein was measured using THP1-Dual™ cells (KO-IFNAR2).
THP1-Dual™ KO-IFNAR2 Cells (obtained from invivogen) were maintained in RPMI, 10% FCS, 5 ml P/S, 2 mM L-glut, 10 mM Hepes, and 1 mM sodium pyruvate. Compounds were spotted in empty 384 well tissue culture plates (Greiner 781182) by Echo for a final concentration of 0.0017-100 μM. Cells were plated into the TC plates at 40 μL per well, 2×10E6 cells/mL. For activation with STING ligand, 2′3′cGAMP (MW 718.38, obtained from Invivogen), was prepared in Optimem media.
The following solutions were prepared for each 1×384 plate: • Solution A: 2 mL Optimem with one of the following stimuli: • 60 μL of 10 mM 2′3′cGAMP→150 μM stock • Solution B: 2 mL Optimem with 60 μL Lipofectamine 2000→Incubate 5 min at RT
2 mL of solution A and 2 ml Solution B was mixed and incubated for 20 min at room temperature (RT). 20 μL of transfection solution (A+B) was added on top of the plated cells, with a final 2′3′cGAMP concentration of 15 μM. The plates were then centrifuged immediately at 340 g for 1 minute, after which they were incubated at 37° C., 5% CO2, >98% humidity for 24 h. Luciferase reporter activity was then measured. EC50 values were calculated by using standard methods known in the art.
Luciferase reporter assay: 10 μL of supernatant from the assay was transferred to white 384-plate with flat bottom and squared wells. One pouch of QUANTI-Luc™ Plus was dissolved in 25 mL of water. 100 μL of QLC Stabilizer per 25 mL of QUANTI-Luc™ Plus solution was added. 50 μL of QUANTI-Luc™ Plus/QLC solution per well was then added. Luminescence was measured on a Platereader (e.g., Spectramax I3X (Molecular Devices GF3637001)).
Luciferase reporter activity was then measured. EC50 values were calculated by using standard methods known in the art.

hSTING, sequence (Q86WV6 whole entry R71H/G230A/R293Q): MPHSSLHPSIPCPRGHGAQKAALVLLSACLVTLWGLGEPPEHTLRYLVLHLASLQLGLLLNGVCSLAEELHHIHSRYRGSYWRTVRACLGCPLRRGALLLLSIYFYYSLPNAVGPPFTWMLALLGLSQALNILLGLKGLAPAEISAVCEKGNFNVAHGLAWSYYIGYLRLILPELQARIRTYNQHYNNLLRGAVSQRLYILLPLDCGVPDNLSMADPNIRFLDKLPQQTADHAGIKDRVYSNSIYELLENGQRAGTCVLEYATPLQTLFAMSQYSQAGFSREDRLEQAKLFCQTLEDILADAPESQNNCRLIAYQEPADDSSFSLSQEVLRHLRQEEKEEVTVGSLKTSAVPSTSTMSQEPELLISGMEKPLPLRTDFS

Question: Which EC50 does the source give for `CCc1ccc(-n2cc(-c3ccc4[nH]cc(NC(=O)C(=O)NCC5CC5)c4c3)cn2)cc1` [Compound 105, N-(cyclopropylmethyl)-N′-{5-[1-(4-ethylphenyl)-1H-pyrazol-4-yl]-1H-indol-3-yl}ethanediamide] here?
Answer: 200 to 1000 nM

Question: Which EC50 does the source give for `CCc1ccc(-n2cc(-c3ccc4[nH]cc(NC(=O)C(=O)NC(C)C)c4c3)cn2)cc1` [Compound 110, N′-{5-[1-(4-ethylphenyl)-1H-pyrazol-4-yl]-1H-indol-3-yl}-N-(propan-2-yl)ethanediamide] here?
Answer: 200 to 1000 nM

Question: For `CNC(=O)C(=O)Nc1c[nH]c2ccc(-c3cnn(-c4ccc(C(F)(F)F)cc4)c3)cc12` [Compound 118, N^1-methyl-N^2-(5-(1-(4-(trifluoromethyl)phenyl)-1H-pyrazol-4-yl)-1H-indol-3-yl)oxalamide], which EC50 is on record?
Answer: 200 to 1000 nM

Question: How did the EC50 turn out when `CCc1ccc(-n2cc(-c3ccc4[nH]cc(NC(=O)C(=O)N5CCCC5)c4c3)cn2)cc1` [Compound 115, N-{5-[1-(4-ethylphenyl)-1H-pyrazol-4-yl]-1H-indol-3-yl}-2-oxo-2-(pyrrolidin-1-yl)acetamide] was run?
Answer: 200 to 1000 nM

Question: How did the EC50 turn out when `CCc1ccc(-n2cc(-c3ccc4[nH]cc(NC(=O)C(=O)N(C)C)c4c3)cn2)cc1` [Compound 112, N′-{5-[1-(4-ethylphenyl)-1H-pyrazol-4-yl]-1H-indol-3-yl}-N,N-dimethylethanediamide] was run?
Answer: 200 to 1000 nM

Question: Which EC50 does the source give for `CCc1ccc(-n2cc(-c3ccc4[nH]cc(NC(=O)C(=O)N[C@H]5C[C@H](OC)C5)c4c3)cn2)cc1` [Compound 109, N′-{5-[1-(4-ethylphenyl)-1H-pyrazol-4-yl]-1H-indol-3-yl}-N-[(1r,3r)-3-methoxycyclobutyl]ethanediamide] here?
Answer: 200 to 1000 nM

Question: Which EC50 does the source give for `CCc1ccc(-n2cc(-c3ccc4[nH]cc(NC(=O)C(=O)NCC5CCCC5)c4c3)cn2)cc1` [Compound 106, N′-(cyclopentylmethyl)-N-{5-[1-(4-ethylphenyl)-1H-pyrazol-4-yl]-1H-indol-3-yl}ethanediamide] here?
Answer: 200 to 1000 nM

Question: Which EC50 does the source give for `CCc1ccc(-n2cc(-c3ccc4[nH]cc(NC(=O)C(=O)NCC(F)F)c4c3)cn2)cc1` [Compound 116, N-(2,2-difluoroethyl)-N′-{5-[1-(4-ethylphenyl)-1H-pyrazol-4-yl]-1H-indol-3-yl}ethanediamide] here?
Answer: 200 to 1000 nM

Question: `CCc1ccc(-n2cc(-c3ccc4[nH]cc(NC(=O)C(=O)NC5CCC5)c4c3)cn2)cc1` [Compound 113, N-cyclobutyl-N′-{5-[1-(4-ethylphenyl)-1H-pyrazol-4-yl]-1H-indol-3-yl}ethanediamide] was tested. Which EC50 did it give?
Answer: 200 to 1000 nM

Question: With `CCc1ccc(-n2cc(-c3ccc4[nH]cc(NC(=O)C(=O)N5CCN(C(C)=O)CC5)c4c3)cn2)cc1` [Compound 111, 2-(4-acetylpiperazin-1-yl)-N-{5-[1-(4-ethylphenyl)-1H-pyrazol-4-yl]-1H-indol-3-yl}-2-oxoacetamide] as the compound, how does the EC50 read?
Answer: 200 to 1000 nM

Question: Which EC50 does the source give for `CO[C@H]1C[C@H](NC(=O)C(=O)Nc2c[nH]c3ccc(-c4cnn(-c5ccc(C(F)(F)F)cc5)c4)cc23)C1` [Compound 101, N-[trans-3-methoxycyclobutyl]-N′-(5-[1-[4-(trifluoromethyl)phenyl]pyrazol-4-yl]-1H-indol-3-yl)ethanediamide] here?
Answer: 200 to 1000 nM

Question: Which EC50 does the source give for `CCc1ccc(-n2cc(-c3ccc4[nH]cc(NC(=O)C(N)=O)c4c3)cn2)cc1` [Compound 124, N^1-(5-(1-(4-ethylphenyl)-1H-pyrazol-4-yl)-1H-indol-3-yl)oxalamide] here?
Answer: 200 to 1000 nM

Question: For `CNC(=O)C(=O)Nc1c[nH]c2ccc(-c3cnn(C4CCCC4)c3)cc12` [Compound 122, N^1-(5-(1-cyclopentyl-1H-pyrazol-4-yl)-1H-indol-3-yl)-N^2-methyloxalamide], which EC50 is on record?
Answer: 5000 to 100000 nM

Question: How did the EC50 turn out when `CCc1ccc(-n2cc(-c3ccc4[nH]cc(NC(=O)C(=O)NCC(F)(F)F)c4c3)cn2)cc1` [Compound 114, N1-(5-(1-(4-ethylphenyl)-1H-pyrazol-4-yl)-1H-indol-3-yl)-N^2-(2,2,2-trifluoroethyl)oxalamide] was run?
Answer: 200 to 1000 nM

Question: How did the EC50 turn out when `CCc1ccc(-n2cc(-c3ccc4[nH]cc(NC(=O)C(=O)NCCOC)c4c3)cn2)cc1` [Compound 120, N′-{5-[1-(4-ethylphenyl)-1H-pyrazol-4-yl]-1H-indol-3-yl}-N-(2-methoxyethyl)ethanediamide] was run?
Answer: 200 to 1000 nM

Question: How did the EC50 turn out when `CCc1ccc(-n2cc(-c3ccc4[nH]cc(NC(=O)C(=O)NC5CCOC5)c4c3)cn2)cc1` (stereo not drawn) [Compound 108, N-{5-[1-(4-ethylphenyl)-1H-pyrazol-4-yl]-1H-indol-3-yl}-N′-(oxolan-3-yl)ethanediamide] was run?
Answer: 200 to 1000 nM

Question: Which EC50 does the source give for `O=C(Nc1c[nH]c2ccc(-c3cnn(-c4ccc(C(F)(F)F)cc4)c3)cc12)C(=O)NC1COC1` [Compound 102, N^1-(oxetan-3-yl)-N^2-(5-(1-(4-(trifluoromethyl)phenyl)-1H-pyrazol-4-yl)-1H-indol-3-yl)oxalamide] here?
Answer: 200 to 1000 nM

Question: For `CNC(=O)C(=O)Nc1c[nH]c2ccc(-c3cccc(C4CC4)c3)cc12` [Compound 117, N^1-(5-(3-cyclopropylphenyl)-1H-indol-3-yl)-N^2-methyloxalamide], which EC50 is on record?
Answer: 5000 to 100000 nM

Question: Which EC50 does the source give for `CCc1ccc(-n2cc(-c3ccc4[nH]cc(NC(=O)C(=O)NC5CCCC5)c4c3)cn2)cc1` [Compound 104, N′-cyclopentyl-N-{5-[1-(4-ethylphenyl)-1H-pyrazol-4-yl]-1H-indol-3-yl}ethanediamide] here?
Answer: 200 to 1000 nM

Question: `CNC(=O)C(=O)Nc1c[nH]c2ccc(-c3cnn(-c4ccccc4Cl)c3)cc12` [Compound 121, N^1-(5-(1-(2-chlorophenyl)-1H-pyrazol-4-yl)-1H-indol-3-yl)-N^2-methyloxalamide] was tested. Which EC50 did it give?
Answer: 1000 to 5000 nM

Question: For `CCc1ccc(-n2cc(-c3ccc4[nH]cc(NC(=O)C(=O)NCCC(F)(F)F)c4c3)cn2)cc1` [Compound 103, N′-{5-[1-(4-ethylphenyl)-1H-pyrazol-4-yl]-1H-indol-3-yl}-N-(3,3,3-trifluoropropyl)ethanediamide], which EC50 is on record?
Answer: 200 to 1000 nM

Question: How did the EC50 turn out when `CCc1ccc(-n2cc(-c3ccc4[nH]cc(NC(=O)C(=O)N5CCC5)c4c3)cn2)cc1` [Compound 107, 2-(azetidin-1-yl)-N-{5-[1-(4-ethylphenyl)-1H-pyrazol-4-yl]-1H-indol-3-yl}-2-oxoacetamide] was run?
Answer: 200 to 1000 nM

Question: Which EC50 does the source give for `CNC(=O)C(=O)Nc1c[nH]c2ccc(-c3cnn(-c4cccc(Cl)c4)c3)cc12` [Compound 119, N^1-(5-(1-(3-chlorophenyl)-1H-pyrazol-4-yl)-1H-indol-3-yl)-N^2-methyloxalamide] here?
Answer: 1000 to 5000 nM

Question: For `CCc1ccc(-n2cc(-c3ccc4[nH]cc(NC(=O)C(=O)NC)c4c3)cn2)cc1` [Compound 123, N′-[5-[1-(4-ethylphenyl)pyrazol-4-yl]-1H-indol-3-yl]-N-methylethanediamide], which EC50 is on record?
Answer: 200 to 1000 nM
